{
  "source": "patent US20260232827A1",
  "about": "“ANTIBODY-DRUG CONJUGATES TARGETING NAPI2B AND METHODS OF USE” (Zymeworks BC Inc., priority 2023, published 2026)",
  "key": {"[1]": {"test_system": "human myeloid progenitors", "assay": "Colony-forming unit (CFU) assay, target-independent cytotoxicity", "format": "cell-based", "details": "336 h", "description": "(§1) The non-specific (target-independent) cytotoxicity of ADCs in human erythroid and myeloid progenitors is of interest as, in the context of off-target toxicities, uptake and trafficking of intact ADCs into normal cells can occur by different mechanisms following administration of ADC in vivo, including target-dependent, for example, NaPi2b-dependent internalization, or target-independent mechanisms, for example, FcγR-dependent internalization or non-specific endocytosis (Mahalingaiah et al., Pharmacol Ther. 2019 August; 200:110-125). Profiling the in vitro target-independent cytotoxicity of ADCs to erythroid and myeloid progenitors may further understanding of their interactions in vivo.\n(§2) Briefly, 20,000 human bone marrow-isolated HSC CD34+ were seeded in a semi-solid methylcellulose-based media formulation containing recombinant human interleukin-3 (rhIL-3, 10 ng/mL), rh granulocyte-macrophage-colony-stimulating factor (rhGM-CSF, 10 ng/mL), rh stem cell factor (rhSCF, 50 ng/mL) and Erythropoietin (Epo, 3 U/mL), to induce differentiation into clonogenic progenitors of human erythroid (CFU-erythroid CFU-E, burst-forming unit-erythroid BFU-E), granulocyte-monocyte (CFU-granulocyte-macrophage CFU-GM) and multipotential (CFU-granulocyte-erythroid-monocyte-megakaryocyte CFU-GEMM). […] After treatment, erythroid and myeloid colonies were assessed microscopically and scored. The colonies were divided into the following categories based on size and morphology: CFU-E, BFU-E, CFU-GM and CFU-GEMM. Percent survivability values were calculated based on the number of colonies after treatment over the number of colonies after solvent controls treatment and plotted against test article concentration using GraphPad Prism 9 software (GraphPad Software, La Jolla, CA). IC50 values were calculated based on a non-linear regression log(inhibitor) versus response, variable slope (four parameters) by GraphPad Prism 9."}, "[2]": {"test_system": "human erythroid progenitors", "assay": "Colony-forming unit (CFU) assay, target-independent cytotoxicity", "format": "cell-based", "details": "336 h", "description": "as §1, §2"}, "human NaPi2b": {"target": "T1, human NaPi2b (Homo sapiens, UniProt O95436)", "T1 construct": "Full length human NaPi2b; host or cells: HEK293-6e", "T1 sequence (O95436 1-690)": "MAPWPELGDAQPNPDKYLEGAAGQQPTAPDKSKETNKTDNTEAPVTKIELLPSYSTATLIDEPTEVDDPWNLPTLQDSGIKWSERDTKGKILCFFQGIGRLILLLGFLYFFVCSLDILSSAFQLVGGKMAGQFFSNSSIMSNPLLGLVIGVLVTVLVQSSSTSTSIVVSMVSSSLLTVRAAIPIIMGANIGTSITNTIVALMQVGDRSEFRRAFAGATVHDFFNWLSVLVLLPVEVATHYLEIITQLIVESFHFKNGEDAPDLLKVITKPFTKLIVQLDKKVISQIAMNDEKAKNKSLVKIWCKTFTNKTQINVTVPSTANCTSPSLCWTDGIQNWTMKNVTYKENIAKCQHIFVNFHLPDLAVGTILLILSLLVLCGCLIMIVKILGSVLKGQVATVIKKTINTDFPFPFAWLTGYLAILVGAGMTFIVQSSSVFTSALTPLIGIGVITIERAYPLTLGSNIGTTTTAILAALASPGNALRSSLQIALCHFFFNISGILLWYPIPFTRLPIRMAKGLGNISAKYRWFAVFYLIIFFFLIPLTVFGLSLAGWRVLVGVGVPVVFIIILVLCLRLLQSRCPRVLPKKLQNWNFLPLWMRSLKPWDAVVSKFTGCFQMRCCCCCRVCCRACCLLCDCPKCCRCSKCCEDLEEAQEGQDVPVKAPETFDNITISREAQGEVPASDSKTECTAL", "assay": "Competition binding (epitope binning) by flow cytometry, transfected HEK293-6e cells", "details": "unlabeled competitor 100 μg/mL, detection antibody 1 μg/mL", "experimental": "Binding was assessed by flow cytometry using HEK293-6e cells as described below.\nHEK293-6e cells were transfected for ~24 hours to transiently express human NaPi2b (1 μg of pTT5-NaPi2b per 1 million cells) or transfected with GFP (ATUM, Menlo Park, CA; pD2610-v23, also 1 μg of DNA per 1 million cells). Following transfection, human NaPi2b-expressing HEK296-6e cells and transfected GFP-expressing HEK296-6e cells were mixed at 4:1 ratio. Each well of a V-bottom 96-well plate was seeded with 100,000 cells of the mixture and incubated with 100 μg/mL of unlabeled competitor anti-NaPi2b antibody for an hour on ice. Post incubation, cells were washed and stained with 1 μg/mL of AF647-conjugated anti-NaPi2b detection antibodies for an hour on ice. Following staining and washing, fluorescence was detected by flow cytometry on a BD LSRFortessa™ Cell Analyzer (BD Biosciences, Franklin Lake, NJ) with 10,000 minimum events collected per well. […] Percentage inhibition was calculated using the following formula: […]"}, "[3]": {"test_system": "Construct 2 (chimeric human NaPi2b, region 280-301)", "assay": "Binding region mapping, flow cytometry on transfected HEK293-6e cells", "details": "24 hours at 4° C.", "description": "(§3) NaPi2b constructs containing deletions in the main extracellular loop of human NaPi2b, as well as chimeric NaPi2b/NaPi2c constructs concerning this main loop, were generated.\n(§4) As a complementary strategy, two additional constructs were designed in which the relevant region of the main loop was deleted such as to mimic NaPi2c/NaPi2a main extracellular loop (Constructs 6-7 in Table 52.1). Clones were generated at GenScript Biotech (Piscataway, NJ).\n(§5) Constructs were expressed in HEK293-6e cells as follows. Cells were maintained under standard culture conditions (37° C./5% CO2) with shaking at 110 rpm for suspension and cultured in FreeStyle™ 293 Expression Medium (Thermo Fisher Scientific, Waltham, MA) supplemented with 1% fetal bovine serum (Thermo Fisher Scientific, Waltham, MA) and 1× Penicillin-Streptomycin (Thermo Fisher Scientific, Waltham, MA). Cells were transfected with clones expressing the constructs listed in Table 52.1, at 1 μg of DNA per 1 million cells, using 293Fectin™ Transfection Reagent (Thermo Fisher Scientific, Waltham, MA) and Opti-MEM™ I Reduced Serum Medium (Thermo Fisher Scientific, Waltham, MA), and incubated for 24 hours under standard culture conditions (37° C./5% CO2/110 rpm). Following transfection, cells were seeded at 50,000 cells/well in conical-bottom 96-well plates and treated with a serial dilution of test antibody for 24 hours at 4° C. to prevent internalization. Cells were treated with final concentrations of all humanized antibodies of 200, 20, or 2 nM. Cells were treated with final concentrations of the reference anti-NaPi2a rabbit antibody of 50, 5, or 0.5 nM. […] Following incubation and washing, fluorescence was detected by flow cytometry on a BD LSRFortessa™ Cell Analyzer (BD Biosciences, Franklin Lake, NJ) with 1,000 minimum events collected per well. […] Background-subtracted AF647 Mean Fluorescence Intensity (MFI) values were calculated by subtracting the average MFI of three technical replicates of unstained (no primary antibody) cells."}, "[4]": {"test_system": "Construct 4 (chimeric human NaPi2b, region 341-358)", "assay": "Binding region mapping, flow cytometry on transfected HEK293-6e cells", "details": "antibody 20.0 nM, 24 hours at 4° C.", "description": "as §3, §4, §5"}, "[5]": {"test_system": "Construct 1 (chimeric human NaPi2b, region 239-259)", "assay": "Binding region mapping, flow cytometry on transfected HEK293-6e cells", "details": "24 hours at 4° C.", "description": "as §3, §4, §5"}},
  "note": "Read-outs that look alike come from different tables or passages of the source.",
  "data": [
    {"compound": "CC[C@@]1(O)C(=O)OCc2c1cc1n(c2=O)Cc2c-1nc1cc(F)c(C)cc1c2CNC(=O)OCCO", "note": "[Compound 139, 2-hydroxyethyl (S)-((4-ethyl-8-fluoro-4-hydroxy-9-methyl-3,14-dioxo-3,4,12,14-tetrahydro-1H-pyrano[3′,4′:6,7]indolizino[1,2-b]quinolin-11-yl)methyl)carbamate]", "values": [
      {"measurement": "IC50", "setting": "[1]; 14 days incubation, read-out: Human IC50, Myeloid progenitors", "value": 1.75, "unit": "nM"},
      {"measurement": "IC50", "setting": "[1]; 14 days, read-out: IC50, myeloid progenitors", "value": 1.75, "unit": "nM"},
      {"measurement": "IC50", "setting": "[2]; 14 days incubation, read-out: Human IC50, Erythroid progenitors", "value": 1.32, "unit": "nM"},
      {"measurement": "IC50", "setting": "[2]; 14 days, read-out: IC50, erythroid progenitors", "value": 1.32, "unit": "nM"}
    ]},
    {"compound": "Palivizumab [v16955 (negative control)]", "values": [
      {"measurement": "% Inhibition vs. irrelevant mAb, labeled detection antibody v16955 (negative control)", "setting": "human NaPi2b", "value": 0, "unit": "%"},
      {"measurement": "% Inhibition vs. irrelevant mAb, labeled detection antibody v18992 (MX35)", "setting": "human NaPi2b", "value": 0, "unit": "%"},
      {"measurement": "% Inhibition vs. irrelevant mAb, labeled detection antibody v18993 (lifastuzumab)", "setting": "human NaPi2b", "value": 0, "unit": "%"},
      {"measurement": "% Inhibition vs. irrelevant mAb, labeled detection antibody v23855", "setting": "human NaPi2b", "value": 0, "unit": "%"}
    ]},
    {"compound": "lifastuzumab [lifastuzumab (v18993)]", "values": [
      {"measurement": "Background-Subtracted AF647 Mean Fluorescence Intensity", "setting": "[3]; antibody 20.0 nM", "value": "1,198"},
      {"measurement": "Background-Subtracted AF647 Mean Fluorescence Intensity", "setting": "[3]; antibody 200.0 nM", "value": "1,232"},
      {"measurement": "Background-Subtracted AF647 Mean Fluorescence Intensity", "setting": "[4]", "value": "1,049"},
      {"measurement": "Background-Subtracted AF647 Mean Fluorescence Intensity", "setting": "[5]; antibody 2.0 nM", "value": "1,232"},
      {"measurement": "Background-Subtracted AF647 Mean Fluorescence Intensity", "setting": "[5]; antibody 20.0 nM", "value": "1,697"},
      {"measurement": "Background-Subtracted AF647 Mean Fluorescence Intensity", "setting": "[5]; antibody 200.0 nM", "value": "1,508"}
    ]}
  ]
}
